Measured values from PMC8292346, “Dysfunction of the key ferroptosis-surveilling systems hypersensitizes mice to tubular necrosis during acute kidney injury” (Nature Communications, 2021).
Where “and” joins values, the source holds several entries; their conditions need not be identical. Equal entries are not always repeated.

Columns and labels:
[1] = test system: NIH3T3 cells; test: Simultaneous ferroptosis and necroptosis (RSL3 plus TZ), 7-AAD/annexin V flow cytometry; assay type: cell-based, murine; details: NIH3T3, 16 h
Protocol: (§1) To induce necroptosis in a human cell line, HT29 cells were stimulated at the indicated time points with 20 ng/ml human TNFα (Biolegend), 1 μM SMAC-mimetics (Birinapant, Chemietek), and 20 μM zVAD-fmk (Selleckchem, herein referred to as zVAD). For the induction of necroptosis in NIH3T3 cells, cells were incubated with 20 ng/ml TNF-α and 20 μM zVAD for indicated time points. […] Cells were seeded in six-well plates or petri dishes. […] After indicated time points, cells were collected and prepared for flow cytometry, immunoblotting, and/or LDH release assays.
(§2) Cells were harvested and the pellets were washed twice in PBS and stained with 5 μl of 7-AAD (BD Biosciences) and 5 μl of annexin-V-FITC (BD Biosciences) added to 100 μl annexin-V binding buffer (BD Biosciences). After 15 min, cells were recorded on the LSRII with the FACS Diva 6.1.1 software (BD Biosciences) and subsequently analyzed with the FlowJo v10 software (Tree Star).

[2] = test system: MLKL; test: Western blot of pMLKL (S358) in TSZ-treated HT29 cells; assay type: cell-based, human; details: Nec-1s 10 µM, Fer-1 1 µM, Nec-1f 10 µM
Protocol: as §1
(§3) Cells were lysed in ice-cold 10 mM Tris-HCl, pH 7.5, 50 mM NaCl, 1% Triton X-100, 30 mM sodium pyrophosphate, 50 mM NaF, 100 μM Na3VO4, 2 μM ZnCl2, and 1 mM phenylmethylsulfonyl fluoride (PMSF, modified Frackelton buffer) for 30 min on ice. Insoluble material was removed by centrifugation (14 000×g, 30 min, 4 °C). Protein concentration was determined using a commercial Bradford assay kit according to the manufacturer’s instructions (Thermo Fisher). Equal amounts of protein (typically 30 μg per lane) were resolved on a 4%−15% gradient SDS/PAGE gel and transferred to a PVDF membrane (BIO-RAD). Primary antibody incubation was performed for anti-pS166-RIPK1 (Cell Signaling, Cat# 65746, 1:1000 dilution), anti-pS358-MLKL, (Abcam, ab187091, 1:1000 dilution), anti-MLKL (Genetex, GTX107538, 1:1000 dilution) and anti-β-Actin (Cell Signaling, Cat# 3700S, 1:1000 dilution). Secondary antibodies (anti-mouse, HRP-linked antibody, Cell Signaling, Cat# 7076S; anti-rabbit, HRP-linked antibody, Cell Signaling, Cat# 7074S) were applied at concentrations of 1:5.000 (also see Supplementary Table 1 for details). Proteins were then visualized by enhanced chemiluminescence (ECL; Amersham Biosciences).

[3] = test system: Mouse cortical tubule cells (MCT); test: FINs/ferroptocide, 7-AAD/annexin V flow cytometry; assay type: cell-based; details: MCT, alone (DMSO) or with Fer-1 1 µM, Nec-1s 30 µM, Nec-1f 30 µM
Protocol: as §1, §2

[4] = test system: NIH3T3 cells; test: Ferroptosis inducers (FINs)/ferroptocide, 7-AAD/annexin V flow cytometry; assay type: cell-based, murine; details: individual replicates
[5] = test system: HT1080 cells; test: CellTiter-Glo luminescent cell viability assay (ATP), dose-response; assay type: cell-based, human
Protocol: Cells were plated in an opaque-walled 96-well plate and treatment with ferroptosis inducers and/or ferroptosis inhibitors was initiated 24 h later. […] Here, the reaction agent was directly added to the wells, mixed on an orbital shaker for 2 min, and then incubated at room temperature for 10 min. The luminescence was detected using a Promega GloMax® instrument.

[6] = test system: HT1080 cells; test: Ferroptosis inducers (FINs)/ferroptocide, 7-AAD/annexin V flow cytometry; assay type: cell-based, human; details: Nec-1s 30 µM, Nec-1f 30 µM; for double-negative events (7-AAD/annexin V): alone (DMSO) or with Fer-1 1 µM
[7] = test system: NIH3T3 cells; test: as above; assay type: cell-based, murine; details: alone (DMSO) or with Fer-1 1 µM, Nec-1s 30 µM, Nec-1f 30 µM
Protocol: as §1, §2

[8] = test system: HT29 cells; test: TSZ-induced necroptosis, 7-AAD/annexin V flow cytometry; assay type: cell-based, human; details: Nec-1f 10 µM
Protocol: as §1, §2

[9] = test system: RIPK1; test: Western blot of pRIPK1 (S166) in TSZ-treated HT29 cells; assay type: cell-based, human; details: Nec-1s 10 µM, Fer-1 1 µM, Nec-1f 10 µM
Protocol: as §1, §3

[10] = test system: CD10-135 cells; test: FINs/ferroptocide, LDH release assay; assay type: cell-based, human; set-up: LDH release: unit not given here; details: Nec-1f 30 µM
[11] = test system: C57Bl/6 N mice; test: Bilateral kidney ischemia-reperfusion injury, severe model (38 min ischemia), survival; details: single dose 2 mg/kg body weight before reperfusion

CN1C(=O)NC(Cc2c[nH]c3c(Cl)cccc23)C1=O (stereo not drawn) [Nec-1s, necrostatin-1s]
Rescue from necrosis induced by RSL3 plus TZ [1]: fail to rescue | Phosphorylation of MLKL (pS358), western blot [2]: comparable between Nec-1s and Nec-1f | double-negative events (7-AAD/annexin V) ([3]; 5 µM erastin 24 h): 60.5% and 85.4% and 84.9% and 77.6% | double-negative events (7-AAD/annexin V) ([3]; 10 µM FIN56 24 h): 93.3% and 88% and 89.2% | cells in 7-AAD/annexin V flow cytometry (FigS9b) ([4]; Erastin-induced ferroptosis): 17.0% and 14.0% and 10.0% | cells in 7-AAD/annexin V flow cytometry (FigS9b) ([4]; FIN56-induced ferroptosis): 57.0% and 34.0% | cells in 7-AAD/annexin V flow cytometry (FigS9b) ([4]; FINO2-induced ferroptosis): 63.0% and 21.0% | cells in 7-AAD/annexin V flow cytometry (FigS9b) ([4]; Ferroptocide-induced cell death): 80.0% and 5.0% | cells in 7-AAD/annexin V flow cytometry (FigS9b) ([4]; RSL3-induced ferroptosis): 71.0% and 41.0% | ATP luminescence (CellTiterGlo) ([5]; HT1080 + Erastin, inhibitor concentration 0.01 (unit not given)): 6.2776% | ATP luminescence (CellTiterGlo) ([5]; HT1080 + Erastin, inhibitor concentration 0.1 (unit not given)): 6.426% | ATP luminescence (CellTiterGlo) ([5]; HT1080 + Erastin, inhibitor concentration 1 (unit not given)): 6.611% | ATP luminescence (CellTiterGlo) ([5]; HT1080 + Erastin, inhibitor concentration 10 (unit not given)): 6.739% | ATP luminescence (CellTiterGlo) ([5]; HT1080 + Erastin, inhibitor concentration 30 (unit not given)): 13.0792% | ATP luminescence (CellTiterGlo) ([5]; HT1080 + Ferroptocide, inhibitor concentration 0.01 (unit not given)): 2.171% and 0.348% | ATP luminescence (CellTiterGlo) ([5]; HT1080 + Ferroptocide, inhibitor concentration 0.1 (unit not given)): 7.287% and 1.309% | ATP luminescence (CellTiterGlo) ([5]; HT1080 + RSL3, inhibitor concentration 0.01 (unit not given)): 48.9951% and 58.0398% | ATP luminescence (CellTiterGlo) ([5]; HT1080 + RSL3, inhibitor concentration 0.1 (unit not given)): 48.7049% and 62.3771% | ATP luminescence (CellTiterGlo) ([5]; HT1080 + RSL3, inhibitor concentration 1 (unit not given)): 60.6314% and 81.5005% | ATP luminescence (CellTiterGlo) ([5]; HT1080 + RSL3, inhibitor concentration 10 (unit not given)): 61.8212% and 84.0786% | double-negative events (7-AAD/annexin V) ([6]; HT1080, 1.13 µM RSL3 6 h): 45.5% and 30.5% and 56.9% and 58.4% | double-negative events (7-AAD/annexin V) ([6]; HT1080, 10 µM FIN56 24 h): 88.1% and 85.1% and 82.1% | double-negative events (7-AAD/annexin V) ([6]; HT1080, 10 µM ferroptocide 24 h): 42.7% and 26.5% | Inhibition of cell death induction by FINs/ferroptocide ([6]; HT1080, Fer-1 1 µM): but not by Nec-1s | double-negative events (7-AAD/annexin V) ([7]; NIH3T3, 5 µM erastin 24 h): 10.2% and 2.01% and 4.47% and 2.99% | double-negative events (7-AAD/annexin V) ([7]; NIH3T3, 10 µM FIN56 24 h): 88.9% and 92.9% and 90.2% | double-negative events (7-AAD/annexin V) ([7]; NIH3T3, 10 µM FINO2 24 h): 6.67% and 1.36% and 2.97% and 1.72% and 7.65% and 9.33% | 7-AAD/annexin V flow cytometry, source data of bar graph Fig2e ([8]; HT29, TSZ (TNFα 20 ng/ml, birinapant 1 µM, zVAD-fmk 20 µM) 16 h): 77% and 78.7% and 91.4% and 88.7% | Protection against TSZ-induced necroptosis (7-AAD/annexin V, words) ([8]; HT29, TSZ): maintained double negativity | Phosphorylation of RIPK1 at S166, western blot [9]: prevented phosphorylation at S166 in RIPK1 | LDH release ([10]; CD10-135, FIN56 alone (FIN) or with Fer-1, Nec-1s): 86.05 and 52.2984 and 63.7092 | LDH release ([10]; CD10-135, FINO2 alone (FIN) or with Fer-1, Nec-1s): 71.57 and 72.5571 and 70.4933 | LDH release ([10]; CD10-135, RSL3 alone (FIN) or with Fer-1, Nec-1s): 64.62 and 54.5823 | LDH release ([10]; CD10-135, erastin alone (FIN) or with Fer-1, Nec-1s): 93.98 and 95.3511 and 88.9965 | LDH release ([10]; CD10-135, ferroptocide alone (FIN) or with Fer-1, Nec-1s): 100 and 93.4978 | Survival after severe renal IRI vs vehicle (Kaplan-Meier, words) [11]: not statistically significant
